Results from patent US20080153791A1, “11Beta -Hydroxysteroid Dehydrogenases” (onpharm GmbH, priority 2005, published 2008).
Read-outs that look alike come from different tables or passages of the source. Each block holds one compound with its values, some of them ahead of it.

What was measured:
human 11β-HSD1 [1] = target: T1, human 11β-HSD1 (Homo sapiens, UniProt P28845); assay: 11β-HSD1 reductase activity (cortisone to cortisol) in lysates of stably transfected HEK-293 cells; assay type: biochemical; conditions: read-out: 11β-HSD1 % of control
T1 construct: expressed in transfected cells
T1 sequence (P28845 whole entry): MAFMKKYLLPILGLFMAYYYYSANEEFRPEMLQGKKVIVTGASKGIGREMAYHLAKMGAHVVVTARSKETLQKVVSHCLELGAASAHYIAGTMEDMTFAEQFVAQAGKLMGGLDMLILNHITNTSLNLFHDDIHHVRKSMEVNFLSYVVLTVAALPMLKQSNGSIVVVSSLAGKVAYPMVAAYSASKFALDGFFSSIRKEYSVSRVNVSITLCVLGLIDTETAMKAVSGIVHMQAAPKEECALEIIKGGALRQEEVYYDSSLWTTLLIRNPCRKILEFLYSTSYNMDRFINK

human 11β-HSD1 [2] = target: T1, human 11β-HSD1; assay: as above; assay type: biochemical; conditions: for remaining activity at 20 µM: 20 μM compound, 100 nM cortisone, HEK-293 cell lysates, read-out: 11β-HSD1 % of control
Protocol: (§1) Cells were grown in 10 cm dishes to 80% confluence and incubated for 16 h in steroid-free medium (charcoal-treated fetal calf serum (FCS) from HyClone, Logan, Utah). Cells were rinsed once with phosphate-buffered saline (PBS), detached and centrifuged for 3 min at 150×g. The supernatant was removed and the cell pellet quick-frozen in a dry-ice ethanol bath. At the day of experiment, cell pellets were resuspended in buffer TS2 (100 mM NaCl, 1 mM EGTA, 1 mM EDTA, 1 mM MgCl2, 250 mM sucrose, 20 mM Tris-HCl, pH 7.4), sonicated and activities determined immediately. The rate of conversion of cortisol to cortisone or the reverse reaction was determined in 96-well optical PCR reaction plates (Applied Biosystems, Foster City, Calif.) in a final volume of 22 μl, and the tubes were capped during the reaction to avoid evaporation.
Reactions were initiated simultaneously by adding 10 μl of cell lysate and 12 μl of TS2 buffer containing the appropriate concentration of the inhibitory compound to be tested, NADPH, 30 nCi of [1,2,6,7-^3H]-cortisone and unlabeled cortisone, whereby final concentrations were 400 μM NADPH and 100 nM cortisone. Activities were determined immediately after cell disruption by measuring the conversion of radiolabeled cortisone to cortisol for 10 min.
(§2) Enzyme kinetics were analyzed by non-linear regression using Data Analysis Toolbox (MDL Information Systems Inc.) assuming first-order rate kinetics. Data represent mean ±SD of four to five independent experiments.
(§3) Assay with 20 μM of the corresponding compound in the reaction mixture, added simultaneously with the substrate:
(§4) Determination of IC50 values, using 7 different inhibitor concentrations at factor 2 intervals: […]

17β-HSD1 = target: T2, 17β-HSD1 (Homo sapiens, UniProt P14061); assay: Inhibition of 17β-HSD1; assay type: biochemical
T2 sequence (P14061 1-328): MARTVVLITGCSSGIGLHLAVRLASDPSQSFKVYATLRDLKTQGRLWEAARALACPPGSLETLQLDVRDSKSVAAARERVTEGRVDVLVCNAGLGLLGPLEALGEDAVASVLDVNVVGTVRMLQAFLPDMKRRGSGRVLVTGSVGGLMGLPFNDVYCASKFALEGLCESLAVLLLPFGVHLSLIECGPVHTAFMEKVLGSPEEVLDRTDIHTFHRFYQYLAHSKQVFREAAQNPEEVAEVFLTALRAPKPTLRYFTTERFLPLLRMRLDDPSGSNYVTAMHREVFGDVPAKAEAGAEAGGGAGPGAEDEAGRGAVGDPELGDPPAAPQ

human 11β-HSD1 [3] = target: T1, human 11β-HSD1; assay: 11β-HSD1 activity in intact transfected HEK-293 cells; assay type: cell-based
Protocol: (§5) Human 11β-HSD1 and 11β-HSD2 activities were assessed in intact stably transfected HEK-293 cells. Per well of a 96-well plate 30,000 cells were seeded, followed by growth for 24 h in steroid-free DMEM medium. The total volume was 30 μl and contained 100 nM of radiolabeled cortisol or cortisone as substrate and the corresponding inhibitor at a final concentration between 0-200 μM. The reaction was performed in steroid-free medium in the absence of exogenous cofactor for 1 to 3 h at 37° C. The solvent was below 0.1% (DMSO). Reactions were stopped by adding unlabeled cortisol and cortisone dissolved in methanol (2 mM final). Steroids were separated by TLC and conversion determined by scintillation counting.
as §2

human 11β-HSD2 [4] = target: T3, human 11β-HSD2 (Homo sapiens, UniProt P80365); assay: 11β-HSD2 activity in intact transfected HEK-293 cells; assay type: cell-based; conditions: read-out: IC50 for 11β-HSD2 (determined in intact transfected HEK-293 cells)
T3 construct: expressed in transfected cells
T3 sequence (P80365 1-405): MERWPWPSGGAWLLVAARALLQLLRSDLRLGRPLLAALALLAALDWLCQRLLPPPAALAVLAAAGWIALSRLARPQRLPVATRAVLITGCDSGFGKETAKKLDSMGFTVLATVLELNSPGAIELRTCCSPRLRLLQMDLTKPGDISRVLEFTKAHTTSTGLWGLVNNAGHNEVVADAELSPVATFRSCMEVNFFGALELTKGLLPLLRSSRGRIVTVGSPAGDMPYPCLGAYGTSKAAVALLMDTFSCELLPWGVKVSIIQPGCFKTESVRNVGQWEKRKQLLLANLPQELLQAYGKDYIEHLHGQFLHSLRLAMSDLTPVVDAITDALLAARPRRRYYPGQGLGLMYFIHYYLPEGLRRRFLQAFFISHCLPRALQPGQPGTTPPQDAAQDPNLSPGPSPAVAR
Protocol: as §5, §2

human 11β-HSD2 [5] = target: T3, human 11β-HSD2; assay: 11β-HSD2 oxidase activity (cortisol to cortisone) in lysates of stably transfected HEK-293 cells; assay type: biochemical; conditions: for remaining activity at 20 µM: 20 μM compound, 25 nM cortisol, HEK-293 cell lysates, read-out: 11β-HSD2 % of control; for IC50: cell lysates, 7 inhibitor concentrations at factor 2 intervals
Protocol: as §1
Reactions were initiated by simultaneously adding 10 μl of cell lysate and 12 μl of TS2 buffer containing the appropriate concentration of the inhibitory compound to be tested, NAD^+, 30 nCi of [1,2,6,7-^3H]-cortisol and unlabeled cortisol. […] Stock solutions of the inhibitors in methanol or DMSO were diluted in TS2 buffer to yield the appropriate concentrations, whereby the concentration of methanol or DMSO in the reactions were kept below 0.1%. Control reactions with or without 0.1% of the solvent were performed. Incubation was at 37° C. for 10 min with shaking, reactions were terminated by adding 10 μl of stop solution containing 2 mM of unlabeled cortisol and cortisone dissolved in methanol. The conversion of radiolabeled cortisol was determined by separation of cortisol and cortisone using TLC and a solvent system of 9:1 (v/v) chloroform:methanol, followed by scintillation counting.
as §2, §3, §4

17β-HSD2 = target: T4, 17β-HSD2 (Homo sapiens, UniProt P37059); assay: Inhibition of 17β-HSD2; assay type: biochemical
T4 sequence (P37059 1-387): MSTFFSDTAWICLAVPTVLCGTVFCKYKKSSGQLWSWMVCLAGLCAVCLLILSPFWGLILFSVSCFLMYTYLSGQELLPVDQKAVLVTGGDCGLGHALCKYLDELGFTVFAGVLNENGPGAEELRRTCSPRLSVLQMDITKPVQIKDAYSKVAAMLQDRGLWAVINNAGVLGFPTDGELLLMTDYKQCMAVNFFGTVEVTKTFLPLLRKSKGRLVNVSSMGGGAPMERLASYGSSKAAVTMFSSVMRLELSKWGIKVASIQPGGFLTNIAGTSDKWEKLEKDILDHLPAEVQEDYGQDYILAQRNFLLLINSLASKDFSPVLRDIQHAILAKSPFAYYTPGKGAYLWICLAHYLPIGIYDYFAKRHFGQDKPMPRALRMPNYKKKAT

remaining activity at 10 µM (human 11β-HSD1 [1]): 4.4%
Structure (SMILES): CC1(C)[C@@H](OC(=O)CCC(=O)O)CC[C@]2(C)[C@H]3C(=O)C=C4[C@@H]5C[C@@](C)(C(=O)O)CC[C@]5(C)CC[C@@]4(C)[C@]3(C)CC[C@@H]12 [CBX, carbenoxolone]

Structure (SMILES): CC(=O)OC1CC[C@]2(C)C3=C(C(=O)C[C@H]2C1(C)C)[C@]1(C)CCC(C(C)CCC(=O)O)[C@@]1(C)CC3=O (stereo partly drawn) [BNW16, 4-((5R,10S,13R,14R)-3-Acetoxy-4,4,10,13,14-pentamethyl-7,11-dioxo-2,3,4,5,6,7,10,11,12,13,14,15,16,17-tetradecahydro-1H-cyclopenta[a]phenanthren-17-yl)-pentanoic acid]
remaining activity at 20 µM (human 11β-HSD1 [2]): 2.7% | IC50 (human 11β-HSD1 [2]; IC 50 11β-HSD1, determination 1): 149 nM | IC50 (human 11β-HSD1 [2]; IC 50 11β-HSD1, determination 2): 168 nM | IC50 (human 11β-HSD1 [2]; IC 50 11β-HSD1, determination 3): 114 nM | IC50 (17β-HSD1): > 30000 nM | inhibition of 17β-HSD1 (in words) (17β-HSD1): no inhibition | IC50 (human 11β-HSD1 [3]): 2320 ± 330 nM | IC50 (human 11β-HSD1 [3]; text b14, read-out: IC50 for 11β-HSD1 determined in intact transfected HEK-293 cells): 410 ± 80 nM | IC50 (human 11β-HSD2 [4]): > 50000 nM | inhibition of 11β-HSD2 (in words) (human 11β-HSD2 [5]): no inhibition | remaining activity at 20 µM (human 11β-HSD2 [5]): 27.4% | IC50 (human 11β-HSD2 [5]; experiment 2, read-out: IC 50 11β-HSD2, determination 2): 4040 nM | IC50 (human 11β-HSD2 [5]; experiment 3, read-out: IC 50 11β-HSD2, determination 3): 3870 nM | IC50 (17β-HSD2): 28300 ± 5500 nM | inhibition of 17β-HSD2 (in words) (17β-HSD2): no inhibition

remaining activity at 20 µM (human 11β-HSD1 [2]): 9.6% | IC50 (human 11β-HSD1 [2]; cell lysates, 7 inhibitor concentrations at factor 2 intervals, experiment 1, read-out: IC 50 11β-HSD1, determination 1): 1950 nM | IC50 (human 11β-HSD1 [2]; cell lysates, 7 inhibitor concentrations at factor 2 intervals, experiment 2, read-out: IC 50 11β-HSD1, determination 2): 1910 nM | IC50 (human 11β-HSD1 [2]; cell lysates, 7 inhibitor concentrations at factor 2 intervals, experiment 3, read-out: IC 50 11β-HSD1, determination 3): 2240 nM | inhibition of 17β-HSD1 (in words) (17β-HSD1): did not inhibit | inhibition of 17β-HSD1 (in words) (17β-HSD1; listed as 7): no inhibition | IC50 (human 11β-HSD1 [3]; 11β-HSD1, intact HEK-293 cells, mean ± SD, read-out: IC50 in intact cells): 550 ± 50 nM | inhibition of 11β-HSD2 (in words) (human 11β-HSD2 [5]): did not inhibit | remaining activity at 20 µM (human 11β-HSD2 [5]): 140% | inhibition of 11β-HSD2 (in words) (human 11β-HSD2 [5]; listed as 7): no inhibition | inhibition of 17β-HSD2 (in words) (17β-HSD2): did not inhibit | inhibition of 17β-HSD2 (in words) (17β-HSD2; listed as 7): no inhibition
Structure (SMILES): COc1ccc(CCNC(=O)C23CCC(C)(C(=O)C2=O)C3(C)C)cc1OC (stereo not shown) [BNW7, 4,7,7-Trimethyl-2,3-dioxo-bicyclo[2.2.1]heptane-1-carboxylic acid [2-(3,4-dimethoxy-phenyl)-ethyl]-amide]
